Measured values taken from PubChem BioAssay (NCI).
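Briefly, cells in 96-well plates were exposed to five compound concentrations for 48 h, and endpoints were estimated by linear interpolation. GI50 = concentration required for 50% inhibition of growth. TGI: concentration producing complete growth inhibition.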

Assays:
Assay in all cases: DTP human tumour cell line panel, 48 h
M14 melanoma = tested on: M14 melanoma
DU-145 prostate = tested on: DU-145 prostate
HOP-92 NSCLC = tested on: HOP-92 NSCLC
CAKI-1 renal = tested on: CAKI-1 renal
ACHN renal = tested on: ACHN renal
SK-MEL-28 melanoma = tested on: SK-MEL-28 melanoma
SNB-75 CNS = tested on: SNB-75 CNS
EKVX NSCLC = tested on: EKVX NSCLC
T-47D breast = tested on: T-47D breast
A498 renal = tested on: A498 renal
SW-620 colon = tested on: SW-620 colon
BT-549 breast = tested on: BT-549 breast
786-0 renal = tested on: 786-0 renal
A549 NSCLC = tested on: A549 NSCLC
PC-3 prostate = tested on: PC-3 prostate
RXF 393 renal = tested on: RXF 393 renal
HCT-15 colon = tested on: HCT-15 colon
SF-539 CNS = tested on: SF-539 CNS
LOX IMVI melanoma = tested on: LOX IMVI melanoma
OVCAR-5 ovarian = tested on: OVCAR-5 ovarian
SN12C renal = tested on: SN12C renal
OVCAR-8 ovarian = tested on: OVCAR-8 ovarian
U251 CNS = tested on: U251 CNS
K-562 leukemia = tested on: K-562 leukemia
HCT-116 colon = tested on: HCT-116 colon
COLO 205 colon = tested on: COLO 205 colon
MDA-MB-468 breast = tested on: MDA-MB-468 breast
IGROV1 ovarian = tested on: IGROV1 ovarian
SNB-19 CNS = tested on: SNB-19 CNS
CCRF-CEM leukemia = tested on: CCRF-CEM leukemia
MDA-MB-435 = tested on: MDA-MB-435
TK-10 renal = tested on: TK-10 renal
OVCAR-4 ovarian = tested on: OVCAR-4 ovarian
SF-268 CNS = tested on: SF-268 CNS
HS 578T breast = tested on: HS 578T breast
SK-OV-3 ovarian = tested on: SK-OV-3 ovarian
RPMI-8226 leukemia = tested on: RPMI-8226 leukemia
OVCAR-3 ovarian = tested on: OVCAR-3 ovarian
KM12 colon = tested on: KM12 colon
NCI-H23 lung = tested on: NCI-H23 lung
MALME-3M melanoma = tested on: MALME-3M melanoma
NCI-H460 lung = tested on: NCI-H460 lung
HT29 colon = tested on: HT29 colon
UO-31 renal = tested on: UO-31 renal
SK-MEL-2 melanoma = tested on: SK-MEL-2 melanoma
NCI-H522 lung = tested on: NCI-H522 lung
MDA-MB-231 breast = tested on: MDA-MB-231 breast
MCF7 breast = tested on: MCF7 breast
HCC-2998 colon = tested on: HCC-2998 colon
NCI-H226 lung = tested on: NCI-H226 lung
UACC-62 melanoma = tested on: UACC-62 melanoma
UACC-257 melanoma = tested on: UACC-257 melanoma
HOP-62 NSCLC = tested on: HOP-62 NSCLC
SF-295 CNS = tested on: SF-295 CNS
SK-MEL-5 melanoma = tested on: SK-MEL-5 melanoma

O=C(N/N=C/c1ccc(-c2ccc(O)cc2)s1)c1[nH]c2ccc(Br)cc2c1-c1ccccc1
GI50 (M14 melanoma): 2.75 µM
TGI (M14 melanoma): 10.5 µM
GI50 (DU-145 prostate): 4.48 µM
TGI (DU-145 prostate): 15.7 µM
GI50 (HOP-92 NSCLC): 2.98 µM
TGI (HOP-92 NSCLC): 9.12 µM
GI50 (CAKI-1 renal): 3.46 µM
TGI (CAKI-1 renal): 13.8 µM
GI50 (ACHN renal): 2.92 µM
TGI (ACHN renal): 10.9 µM
GI50 (SK-MEL-28 melanoma): 3.22 µM
TGI (SK-MEL-28 melanoma): 11.8 µM
GI50 (SNB-75 CNS): 3.27 µM
TGI (SNB-75 CNS): 12.4 µM
GI50 (EKVX NSCLC): 4.04 µM
TGI (EKVX NSCLC): 14.8 µM
GI50 (T-47D breast): 4.6 µM
TGI (T-47D breast): 39.4 µM
GI50 (A498 renal): 5.57 µM
TGI (A498 renal): 18.9 µM
GI50 (SW-620 colon): 4.14 µM
TGI (SW-620 colon): 15.2 µM
GI50 (BT-549 breast): 2.95 µM
TGI (BT-549 breast): 9.97 µM
GI50 (786-0 renal): 2.16 µM
TGI (786-0 renal): 9.19 µM
GI50 (A549 NSCLC): 4.28 µM
TGI (A549 NSCLC): 17.7 µM
GI50 (PC-3 prostate): 3.17 µM
TGI (PC-3 prostate): 13.9 µM
GI50 (RXF 393 renal): 1.92 µM
TGI (RXF 393 renal): 4.56 µM
GI50 (HCT-15 colon): 2.72 µM
TGI (HCT-15 colon): 10.6 µM
GI50 (SF-539 CNS): 2.76 µM
TGI (SF-539 CNS): 8.43 µM
GI50 (LOX IMVI melanoma): 2 µM
TGI (LOX IMVI melanoma): 5.51 µM
GI50 (OVCAR-5 ovarian): 5.15 µM
TGI (OVCAR-5 ovarian): 17.2 µM
GI50 (SN12C renal): 3.48 µM
TGI (SN12C renal): 13 µM
GI50 (OVCAR-8 ovarian): 4.22 µM
TGI (OVCAR-8 ovarian): 17 µM
GI50 (U251 CNS): 3.63 µM
TGI (U251 CNS): 15.5 µM
GI50 (K-562 leukemia): 2.95 µM
TGI (K-562 leukemia): > 100 µM
GI50 (HCT-116 colon): 3.09 µM
TGI (HCT-116 colon): 11.7 µM
GI50 (COLO 205 colon): 7.12 µM
TGI (COLO 205 colon): 23 µM
GI50 (MDA-MB-468 breast): 2.67 µM
TGI (MDA-MB-468 breast): 7.57 µM
GI50 (IGROV1 ovarian): 3.45 µM
TGI (IGROV1 ovarian): 12.9 µM
GI50 (SNB-19 CNS): 4.01 µM
TGI (SNB-19 CNS): 14 µM
GI50 (CCRF-CEM leukemia): 2.46 µM
TGI (CCRF-CEM leukemia): > 100 µM
GI50 (MDA-MB-435): 2.99 µM
TGI (MDA-MB-435): 10.1 µM
GI50 (TK-10 renal): 5.05 µM
TGI (TK-10 renal): 19.3 µM
GI50 (OVCAR-4 ovarian): 3.52 µM
TGI (OVCAR-4 ovarian): 14.1 µM
GI50 (SF-268 CNS): 5.16 µM
TGI (SF-268 CNS): 20.3 µM
GI50 (HS 578T breast): 3.02 µM
TGI (HS 578T breast): 14.1 µM
GI50 (SK-OV-3 ovarian): 12.2 µM
TGI (SK-OV-3 ovarian): 27.8 µM
GI50 (RPMI-8226 leukemia): 3.14 µM
TGI (RPMI-8226 leukemia): > 100 µM
GI50 (OVCAR-3 ovarian): 3.38 µM
TGI (OVCAR-3 ovarian): 13.6 µM
GI50 (KM12 colon): 2.77 µM
TGI (KM12 colon): 9.53 µM
GI50 (NCI-H23 lung): 3.25 µM
TGI (NCI-H23 lung): 11.2 µM
GI50 (MALME-3M melanoma): 2.41 µM
TGI (MALME-3M melanoma): 9.77 µM
GI50 (NCI-H460 lung): 2.72 µM
TGI (NCI-H460 lung): 7.99 µM
GI50 (HT29 colon): 2.3 µM
TGI (HT29 colon): 5.36 µM
GI50 (UO-31 renal): 2.7 µM
TGI (UO-31 renal): 13.5 µM
GI50 (SK-MEL-2 melanoma): 3.45 µM
TGI (SK-MEL-2 melanoma): 12.2 µM
GI50 (NCI-H522 lung): 3.42 µM
TGI (NCI-H522 lung): 14.3 µM
GI50 (MDA-MB-231 breast): 3.36 µM
TGI (MDA-MB-231 breast): 11.5 µM
GI50 (MCF7 breast): 2.57 µM
TGI (MCF7 breast): 10.9 µM
GI50 (HCC-2998 colon): 3.16 µM
TGI (HCC-2998 colon): 10.6 µM
GI50 (NCI-H226 lung): 5.63 µM
TGI (NCI-H226 lung): 20.9 µM
GI50 (UACC-62 melanoma): 2.65 µM
TGI (UACC-62 melanoma): 10 µM
GI50 (UACC-257 melanoma): 10.5 µM
TGI (UACC-257 melanoma): 28 µM
GI50 (HOP-62 NSCLC): 6.32 µM
TGI (HOP-62 NSCLC): 23.6 µM
GI50 (SF-295 CNS): 2.2 µM
TGI (SF-295 CNS): 5.28 µM
GI50 (SK-MEL-5 melanoma): 1.87 µM
TGI (SK-MEL-5 melanoma): 4.16 µM
